≈ marks a conversion by molar mass, not a printed value. Where two headings read alike, the source gives them in different places.
Tests used:
S. epidermidis (1.143) = experiment: MIC, broth microdilution (CLSI); type: cell-based; conditions: Staphylococcus epidermidis
Excerpt: (§1) Staphylococcus aureus ATCC25923 and Escherichia coli ATCC25922 were obtained from the American Type Culture Collection (ATCC, Manassas, VA, USA). The Methicillin-resistant S. aureus (MRSA) clinical isolate MRSA-4, previously confirmed as mecA-positive and characterized for its antibiotic resistance profile ([Sun et al., 2023]), was used in this study. Staphylococcus epidermidis (GDMCC 1.143), Enterococcus faecalis (GDMCC 1.164), and Salmonella enterica subsp. enterica (GDMCC 1.1114) were obtained from the Guangdong Microbial Culture Collection Center (GDMCC, Guangzhou, China). The Pseudomonas aeruginosa PA14 strain was kindly provided by Professor Min Wu (Southwest Medical University, China). All bacterial strains were routinely cultured in Mueller-Hinton broth (MHB) or Luria-Bertani (LB) broth medium at 37°C with shaking at 200 rpm. Vancomycin was purchased from Solarbio Science & Technology Co., Ltd. (Beijing, China), and oxacillin was obtained from Taiji Group Hengsheng Pharmaceutical Co., Ltd. (Chengdu, China). The polyclonal rabbit primary anti-body to FtsZ was purchased from Abcam PLC (Cambridge, UK). Alexa488-conjugated goat anti-rabbit IgG was purchased from ZSGB-BIO Biotechnology (Beijing, China). DAPI staining solution was purchased from Beyotime Biotechnology (Shanghai, China).
(§2) The minimum inhibitory concentrations (MICs) of the test compounds (AA, MA, and UA) were determined using the standard broth microdilution method in accordance with the Clinical and Laboratory Standards Institute (CLSI) guidelines ([Humphries et al., 2021]). Bacteria were cultured in MHB or LB broth at 37°C with shaking (200 rpm) to the logarithmic phase, then diluted to a final density of 1 × 10^6 CFU/mL. Test compounds (dissolved in DMSO) and positive controls (vancomycin and oxacillin) were diluted in MHB and serially twofold diluted in 96-well plates. Each well was inoculated with 100 μL of bacterial suspension (1 × 10^6 CFU/mL), yielding a final bacterial density of 5 × 10^5 CFU/mL and a total volume of 200 μL. The final concentrations tested were 128 to 1 μg/mL for AA, MA, and UA; 16 to 0.5 μg/mL for vancomycin; and 64 to 0.0625 μg/mL for oxacillin. DMSO was used as a solvent control. Plates were incubated statically at 37°C for 18–24 h. After incubation, the OD600 was measured using a microplate reader (SpectraMax i3x, Molecular Devices, CA, USA). The MIC was defined as the lowest compound concentration that caused ≥ 90% inhibition of bacterial growth compared to the drug-free growth control. All tests were performed in three independent biological replicates.
(§3) Following the isolation and identification of AA, MA, and UA from ECPL, we evaluated their antibacterial activity and spectrum. The MICs of the compounds were determined against MRSA-4, S. aureus ATCC25923, S. epidermidis, and E. faecalis (Gram-positive), as well as P. aeruginosa PA14, E. coli ATCC25922, and S. enterica subsp. Enterica (Gram-negative) using the standard broth microdilution method in accordance with CLSI guidelines ([Humphries et al., 2021]).

E. faecalis = experiment: MIC, broth microdilution (CLSI); type: cell-based; conditions: Enterococcus faecalis
Excerpt: as §1, §2, §3

S. aureus ATCC25923 = experiment: MIC, broth microdilution (CLSI); type: cell-based; conditions: Staphylococcus aureus
Excerpt: as §1, §2, §3

P. aeruginosa PA14 = experiment: MIC, broth microdilution (CLSI); type: cell-based; conditions: Pseudomonas aeruginosa
Excerpt: as §1, §2, §3

E. coli ATCC25922 = experiment: MIC, broth microdilution (CLSI); type: cell-based; conditions: Escherichia coli
Excerpt: as §1, §2, §3

MRSA-4 = experiment: TEM analysis of septum formation; type: cell-based, Methicillin-resistant S. aureus; conditions: 1 × MIC, 4 h
Experimental: MRSA-4 was cultured in MHB to mid-log phase as described above. The cultures were then treated with AA, MA, or UA (at 1 × MIC) or with an equal volume of PBS (negative control) for 4 h at 37°C. After treatment, bacterial suspensions were collected by centrifugation at 13,000 × g for 3 min, and the resulting pellets were washed with PBS. Pellets were fixed in 2.5% glutaraldehyde prepared in 0.1 M cacodylate buffer (pH 7.2). Following fixation, samples were dehydrated in a graded ethanol series (30 to 100%), with 100% ethanol replaced three times. Samples were infiltrated with acetone/Epon-812 resin mixtures at ratios of 3:1, 1:1, and 1:3, then embedded in pure Epon-812 resin. Ultrathin sections (60–90 nm) were cut and placed on copper grids. The sections were stained with saturated uranyl acetate for 10–15 min, followed by lead citrate for 1–2 min. Structural and morphological changes in the bacterial cells were observed using a JEOL JEM-1400FLASH transmission electron microscope (JEOL, Japan).
We first evaluated the impact of AA, MA, and UA on septum formation in MRSA-4 cells using TEM. MRSA-4 cultures were treated with AA, MA, or UA at 1 × MIC for 4 h, with PBS-treated cells serving as the control. […] These abnormalities imply that AA, MA, and UA disrupt the septum formation process, which is essential for successful cell division.

[1] = S. epidermidis (1.143), ≥ 90% growth inhibition, 18–24 h, read-out: MIC
[2] = E. faecalis, ≥ 90% growth inhibition, 18–24 h, read-out: MIC
[3] = S. aureus ATCC25923, ≥ 90% growth inhibition, 18–24 h, read-out: MIC
[4] = P. aeruginosa PA14, ≥ 90% growth inhibition, 18–24 h, read-out: MIC
[5] = E. coli ATCC25922, ≥ 90% growth inhibition, 18–24 h, read-out: MIC

Structure (SMILES): C[C@H]1[C@H](C)CC[C@]2(C(=O)O)CC[C@]3(C)C(=CC[C@@H]4[C@@]5(C)C[C@@H](O)[C@H](O)[C@@](C)(CO)[C@@H]5CC[C@]43C)[C@H]12 [AA, asiatic acid]
- MIC (S. epidermidis (1.143); [1]): 16 µg/mL (≈ 32.7 µM)
- MIC (E. faecalis; [2]): 16 µg/mL (≈ 32.7 µM)
- MIC (S. aureus ATCC25923; [3]): 32 µg/mL (≈ 65.5 µM)
- MIC (P. aeruginosa PA14; [4]): > 128 µg/mL
- MIC (E. coli ATCC25922; [5]): > 128 µg/mL
- septum formation (TEM) (MRSA-4): incomplete, mislocalized, or absent septa

Structure (SMILES): CC1(C)CC[C@]2(C(=O)O)CC[C@]3(C)C(=CC[C@@H]4[C@@]5(C)C[C@@H](O)[C@H](O)C(C)(C)[C@@H]5CC[C@]43C)[C@@H]2C1 [MA, maslinic acid]
- MIC (S. epidermidis (1.143)): 8 µg/mL (≈ 16.9 µM)
- MIC (E. faecalis): 4 µg/mL (≈ 8.46 µM)
- MIC (S. aureus ATCC25923; ATCC25923): 32 µg/mL (≈ 67.7 µM)
- MIC (P. aeruginosa PA14; PA14): > 128 µg/mL
- MIC (E. coli ATCC25922; ATCC25922): > 128 µg/mL
- septum formation (TEM) (MRSA-4): incomplete, mislocalized, or absent septa

Structure (SMILES): C[C@H]1[C@H](C)CC[C@]2(C(=O)O)CC[C@]3(C)C(=CC[C@@H]4[C@@]5(C)CC[C@H](O)C(C)(C)[C@@H]5CC[C@]43C)[C@H]12 [UA, ursolic acid]
- MIC (S. epidermidis (1.143); [1]): 8 µg/mL (≈ 17.5 µM)
- MIC (E. faecalis; [2]): 2 µg/mL (≈ 4.38 µM)
- MIC (S. aureus ATCC25923; [3]): 16 µg/mL (≈ 35 µM)
- MIC (P. aeruginosa PA14; [4]): > 128 µg/mL
- MIC (E. coli ATCC25922; [5]): > 128 µg/mL
- septum formation (TEM) (MRSA-4): incomplete, mislocalized, or absent septa

Reference: article PMC12213745, “Compounds from Cyclocarya paliurus leaves inhibit binary division of methicillin-resistant Staphylococcus aureus by disrupting FtsZ dynamic” (Frontiers in Microbiology, 2025)
